In US11019821B2, “Fused bicyclic heterocycle derivatives as pesticides” (Bayer Aktiengesellschaft, priority 2018, dated 2021):

Columns and labels:
Assay type in all cases: in vivo
[1] = system: Lucilia cuprina; assay: Lucilia cuprina test; conditions: application rate 100 ppm, after 2 days, L1 larvae
Procedure: (§1) Solvent: dimethyl sulfoxide
(§2) To produce a suitable active ingredient formulation, 10 mg of active ingredient are mixed with 0.5 ml of dimethyl sulfoxide, and the concentrate is diluted with water to the desired concentration.
About 20 L1 larvae of the Australian sheep blowfly (Lucilia cuprina) are transferred into a test vessel containing minced horsemeat and the active ingredient formulation of the desired concentration.
After 2 days, the kill in % is determined. 100% means that all the larvae have been killed; 0% means that no larvae have been killed.

[2] = system: Myzus persicae; assay: Myzus persicae spray test; conditions: foliar, 120 h, application rate 100 g/ha, after 5 days, Chinese cabbage leaf discs, read-out: efficacy (aphids killed)
Procedure: To produce a suitable active ingredient formulation, 1 part by weight of active ingredient is dissolved with the specified parts by weight of solvent and made up to the desired concentration with water containing an emulsifier concentration of 1000 ppm. To produce further test concentrations, the formulation is diluted with emulsifier-containing water.
Discs of Chinese cabbage leaves (Brassica pekinensis) infested by all stages of the green peach aphid (Myzus persicae) are sprayed with an active ingredient formulation of the desired concentration.
(§3) After 5 days, the efficacy in % is determined. 100% means that all the aphids have been killed; 0% means that no aphids have been killed.

[3] = system: Musca domestica; assay: Musca domestica test; conditions: application rate 100 ppm, after 2 days, adult houseflies
Procedure: as §1, §2
Vessels containing a sponge treated with sugar solution and the active ingredient formulation of the desired concentration are populated with 10 adult houseflies (Musca domestica).
After 2 days, the kill in % is determined. 100% means that all of the flies have been killed; 0% means that none of the flies have been killed.

[4] = system: Ctenocephalides felis; assay: Ctenocephalides felis oral test; conditions: application rate 100 ppm in citrated cattle blood, after 2 days, adult cat fleas
Procedure: as §1
To produce a suitable active ingredient formulation, 10 mg of active ingredient are mixed with 0.5 ml of dimethyl sulfoxide. Dilution with citrated cattle blood gives the desired concentration.
About 20 unfed adult cat fleas (Ctenocephalides felis) are placed into a chamber which is closed at the top and bottom with gauze. A metal cylinder whose bottom end is closed with parafilm is placed onto the chamber. The cylinder contains the blood/active ingredient formulation, which can be imbibed by the fleas through the parafilm membrane.
After 2 days, the kill in % is determined. 100% means that all of the fleas have been killed; 0% means that none of the fleas have been killed.

[5] = system: Myzus persicae; assay: Myzus persicae oral test; conditions: 120 h, application rate 4 ppm, after 5 days, read-out: efficacy (aphids killed)
Procedure: To produce a suitable active ingredient formulation, 1 part by weight of active ingredient is dissolved with the stated parts by weight of solvent and made up to the desired concentration with water.
50 μl of the active ingredient preparation are transferred into microtitre plates and made up to a final volume of 200 μl with 150 μl of IPL41 insect medium (33%+15% sugar). Subselog Puently, the plates are sealed with parafilm, which a mixed population of green peach aphids (Myzus persicae) within a second microtitre plate is able to puncture and imbibe the solution.
as §3

[6] = system: Boophilus microplus; assay: Boophilus microplus injection test; conditions: application rate 20 μg/animal, assessed after 7 days, engorged adult female cattle ticks
Procedure: as §1
To produce a suitable active ingredient formulation, 10 mg of active ingredient are mixed with 0.5 ml of solvent and the concentrate is diluted to the desired concentration with solvent.
1 μl of the active ingredient solution is injected into the abdomen of 5 engorged adult female cattle ticks (Boophilus microplus). The animals are transferred into dishes and kept in a climate-controlled room.
Efficacy is assessed after 7 days by laying of fertile eggs. Eggs which are not visibly fertile are stored in a climate-controlled cabinet until the larvae hatch after about 42 days. An efficacy of 100% means that none of the ticks has laid any fertile eggs; 0% means that all the eggs are fertile.

[7] = system: Ctenocephalides felis; assay: Ctenocephalides felis in vitro contact test with adult cat fleas; conditions: application rate 5 μg/cm^2 (=500 g/ha), after 48 h
Procedure: (§4) For the coating of the test tubes, 9 mg of active ingredient are first dissolved in 1 ml of acetone p.a. and then diluted to the desired concentration with acetone p.a. 250 μl of the solution are distributed homogeneously on the inner walls and the base of a 25 ml glass tube by turning and rocking on an orbital shaker (rocking rotation at 30 rpm for 2 h). With 900 ppm of active ingredient solution and internal surface area 44.7 cm^2, given homogeneous distribution, an area-based dose of 5 μg/cm^2 is achieved.
After the solvent has evaporated off, the tubes are populated with 5-10 adult cat fleas (Ctenocephalides felis), sealed with a perforated plastic lid and incubated in a horizontal position at room temperature and ambient humidity. After 48 h, efficacy is determined. To this end, the tubes are stood upright and the fleas are knocked to the base of the tube. Fleas which remain motionless at the base or move in an uncoordinated manner are considered to be dead or moribund.
100% efficacy means that all the fleas were dead or moribund. 0% efficacy means that no fleas were harmed.

[8] = system: Rhipicephalus sanguineus; assay: Rhipicephalus sanguineus in vitro contact test with adult brown dog ticks; conditions: application rate 5 μg/cm^2 (=500 g/ha), after 48 h
Procedure: as §4, with “walls and base of” for “walls and the base of”, “25 ml test tube by” for “25 ml glass tube by”, “900 ppm active ingredient” for “900 ppm of active ingredient”, “internal surface 44.7 cm^2,” for “internal surface area 44.7 cm^2,”
After the solvent has evaporated off, the tubes are populated with 5-10 adult dog ticks (Rhipicephalus sanguineus), sealed with a perforated plastic lid and incubated in a horizontal position in the dark at room temperature and ambient humidity. After 48 h, efficacy is determined. To this end, the ticks are knocked to the floor of the tube and incubated on a hotplate at 45-50° C. for not more than 5 min. Ticks which remain motionless on the floor or move in such an uncoordinated manner that they are unable to deliberately avoid the heat by climbing upwards are considered to be dead or moribund.
100% efficacy means that all the ticks were dead or moribund. 0% efficacy means that none of the ticks had been harmed.

Compound	efficacy (kill in %) [1]	pest or weed control at 100 g/ha [2]	efficacy (kill in %) [3]	efficacy (kill in %) [4]	pest or weed control at 4 ppm [5]	efficacy (no laying of fertile eggs) [6]	efficacy (fleas dead or moribund) [7]	efficacy (ticks dead or moribund) [8]
CCS(=O)(=O)c1c(-c2nc3cc(C(F)(F)F)ncc3n2C)nn2c1CCCC2 [Example I-02]	100%	90%	80%	90%	100%	–	–	–
CCS(=O)(=O)c1c(-c2nc3cc(C(F)(F)F)ncc3n2C)nn2c1CC(C)CC2 (stereo not drawn) [Example I-05]	–	100%	80%	95%	100%	100%	100%	100%
